In one assay the test system is T1, GH3-N2/C5.
T1 construct: gene GH3.2; one fusion chain: AtGH3.2 residues 1-442 then AtGH3.5 residues 450-608; codon-optimized, pET-28a, His-tagged, E. coli Rosetta2 (DE3), monomer
The experiment in a line: coupled myokinase/pyruvate kinase/lactate dehydrogenase assay of AMP formation, A340. In kind it is biochemical, Arabidopsis thaliana. As to conditions: 1 mM ATP, 5 mM aspartate, 1 mM MgCl2, pH 8.0, 25 °C. The source says:
coupled myokinase/pyruvate kinase/lactate dehydrogenase assay of AMP formation, A340 on GH3-N2/C5

Another assay has as its target T2, AtGH3.12/PBS3 (Arabidopsis thaliana, UniProt Q9LYU4).
T2 construct: gene GH3.12; once misprinted PBS2
T2 sequence (Q9LYU4 1-575): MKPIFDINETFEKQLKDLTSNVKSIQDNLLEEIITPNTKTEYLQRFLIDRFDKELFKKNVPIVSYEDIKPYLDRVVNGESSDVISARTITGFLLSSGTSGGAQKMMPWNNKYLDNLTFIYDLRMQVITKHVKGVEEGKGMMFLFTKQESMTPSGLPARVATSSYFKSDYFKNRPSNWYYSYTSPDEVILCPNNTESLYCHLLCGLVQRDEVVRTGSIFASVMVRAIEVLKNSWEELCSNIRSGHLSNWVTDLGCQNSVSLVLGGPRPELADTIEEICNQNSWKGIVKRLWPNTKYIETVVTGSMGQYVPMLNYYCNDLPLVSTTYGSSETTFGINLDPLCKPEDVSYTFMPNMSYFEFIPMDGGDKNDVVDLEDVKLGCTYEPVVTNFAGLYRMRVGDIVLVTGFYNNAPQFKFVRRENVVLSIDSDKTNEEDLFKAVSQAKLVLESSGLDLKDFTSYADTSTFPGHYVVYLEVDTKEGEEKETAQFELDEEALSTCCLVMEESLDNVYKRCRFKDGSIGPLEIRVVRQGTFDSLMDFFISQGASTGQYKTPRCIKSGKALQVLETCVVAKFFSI
The experiment in a line: TLC with [α-32P]ATP, acyl-AMP and AMP formation. The class given is biochemical. As to conditions: without or with glutamate, 1 mM MgCl2, pH 8.0, 25 °C.

The next assay addresses T3, AtGH3.11/JAR1 (Arabidopsis thaliana, UniProt Q9SKE2).
T3 sequence (Q9SKE2 1-575): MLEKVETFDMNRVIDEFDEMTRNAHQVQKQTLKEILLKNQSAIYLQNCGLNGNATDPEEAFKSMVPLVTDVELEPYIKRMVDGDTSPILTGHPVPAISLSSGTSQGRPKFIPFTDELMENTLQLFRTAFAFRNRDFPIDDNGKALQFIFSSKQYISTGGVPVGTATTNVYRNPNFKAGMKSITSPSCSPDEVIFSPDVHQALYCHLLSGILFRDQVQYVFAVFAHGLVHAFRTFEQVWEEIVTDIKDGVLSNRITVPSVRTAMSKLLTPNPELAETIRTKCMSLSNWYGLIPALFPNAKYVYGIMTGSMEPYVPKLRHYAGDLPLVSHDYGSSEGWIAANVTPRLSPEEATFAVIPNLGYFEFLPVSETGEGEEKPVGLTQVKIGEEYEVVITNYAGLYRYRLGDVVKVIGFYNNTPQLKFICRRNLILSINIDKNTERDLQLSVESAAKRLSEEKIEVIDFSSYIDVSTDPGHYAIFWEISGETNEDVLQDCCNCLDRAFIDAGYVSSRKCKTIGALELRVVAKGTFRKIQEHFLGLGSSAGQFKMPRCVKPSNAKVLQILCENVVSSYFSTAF
The experiment in a line: single-turnover TLC with [α-32P]ATP, acyl-AMP formation. The class given is biochemical. The following applies: first half-reaction with JA, no amino acid, 1 mM MgCl2, pH 8.0, 25 °C; labelled compound.

Regarding `O=C(O)Cc1ccccc1` [PAA], the Km (in general, the substrate concentration at which the rate is half of its maximum) with GH3-N2/C5 amounted to 1500 ± 280 µM. Consider `O=C(O)c1ccccc1` [BA], for which the Km in the assay on GH3-N2/C5 was 880 ± 68 µM. As to `C=C(O[C@@H]1C=C(C(=O)O)C=C[C@H]1O)C(=O)O` [chorismate], the “TLC with [α-32P]ATP, acyl-AMP and AMP formation” value on AtGH3.12/PBS3 was “reactions using BA, 4-HBA, and chorismate produced acyl-AMP and AMP”.

For the molecule `O=C(O)Cc1c[nH]c2ccccc12` [IAA], the Km with GH3-N2/C5 came out at 540 ± 17 µM. For the molecule `Nc1ncnc2c1ncn2[C@@H]1O[C@H](COP(=O)(O)OP(=O)(O)OP(=O)(O)O)[C@@H](O)[C@H]1O` [ATP], the “single-turnover TLC with [α-32P]ATP, acyl-AMP formation” value at AtGH3.11/JAR1 was “rates of turnover from ATP to acyl-AMP (k1)”.
